These results are taken from PMC9166630, “SAR Probing of KX2-391 Provided Analogues With Juxtaposed Activity Profile Against Major Oncogenic Kinases” (Frontiers in Oncology, 2022).

Converted amounts (≈) assume the structure as drawn. Read-outs that look alike come from different tables or passages of the source.

Data set [1] can be described thus: Stability in human liver microsomes. Format: in vitro ADME. The following applies: for half-life: human liver microsomes with NADPH, 37°C, read-out: Stability HLM t1/2; for Mic. Ctrl. Human % 60 min: human liver microsomes, no NADPH added. On the procedure:
Both mouse and human liver microsomes were obtained from Merck KGaA, (Darmstadt, Germany), Cat. No. M9441 (Mouse liver microsomes) and M0317 (Human liver microsomes). Assays were conducted in triplicate in 96-deep well polypropylene plates. […] At five time points, reaction mixture aliquots were transferred to 96-shallow well stop plates on ice containing acetonitrile with 0.1 µM propafenone. […] Standard curves for test compound were generated using 5 concentrations in triplicate that were processed as above but with zero incubation time. Stop plates were centrifuged at 2000 g for 10 min and then supernatant aliquots were transferred to a Waters Aquity® UPLC 700 µL 96-well sample plate with cap mat (Waters, Milford, MA). The amount of compound remaining in the supernatant was quantified by LC/MS/MS using a Waters Xevo TQ MS (electrospray positive mode) coupled to a Waters Aquity® UPLC (BEH column, C18). Propafenone was used as the internal standard. GraphPad® Prism v 5.04 was used for nonlinear fitting of time course data to generate t1/2 values.

In a further data set the target is T1, CYP2C9 (Homo sapiens, UniProt P11712).
T1 construct: purchased Fisher Scientific; host or cells: insect cells (supersomes)
The experiment in a line: Inhibition assay of human CYP450 enzymes, 2C9. Format: in vitro ADME. The following applies: for IC50: fluorescent substrate; for no inhibition of CYP2C9 at concentrations up to: the values are: IC50. As for the experimental part:
(§1) The two compounds 4e and 4n were assessed for their ability to inhibit the three major human CYP450 enzymes, 3A4, 2D6 and 2C9. Assays were run in triplicate. Expressed enzymes in insect supersomes (Fisher Scientific, Waltham, MA) were used to minimize non-specific binding and membrane partitioning issues ([68]). The 3A4 assay uses testosterone as a substrate and analysis was performed by LC/MS/MS on a Waters Xevo TQ instrument as described above using positive electrospray ionization. Assay acceptance criteria was 20% for all standards and 25% for the LLOQ. The 2D6 and 2C9 assays use fluorescent substrates (3-[2-(N,N-diethylamino)ethyl]-7-methoxy-4-methylcoumarin for 2D6; 7-methoxy-4-(trifluoromethyl)coumarin for 2C9) and were analyzed on an Envision plate reader. GraphPad® Prism v 5.04 was used for nonlinear fitting of data to generate IC50 values.

A further data set addresses T2, CYP2D6 (Homo sapiens, UniProt P10635).
T2 construct: purchased Fisher Scientific; host or cells: insect cells (supersomes)
Put plainly: Inhibition assay of human CYP450 enzymes, 2D6. Format: in vitro ADME. The following applies: for IC50: fluorescent substrate; for no inhibition of CYP2D6 at concentrations up to: the values are: IC50. On the procedure: as §1

Data set [2] has as its system human skin fibroblasts (HSF). The experiment in a line: Normal cell line assay. The data set is classed as cell-based. The following applies: Skin fibroblast. On the procedure: In addition to having a good physicochemical profile, it is important for a studied lead to differentiate between cancer cells and highly proliferating non-cancerous cells. Therefore, we assessed compounds 4e and 4n for both the in silico and in vitro physicochemical characteristics as well as for cytotoxic effect on human skin fibroblasts (HSF) cell lines.
The effect of the two compounds was evaluated for their effect on the growth and proliferation human skin fibroblasts (HSF) as an example of non-cancerous cell lines.

Data set [3] relates to MCF7 (breast) cancer cells. The experiment in a line: SRB cytotoxicity assay, MCF7. The conditions noted are these: Homo sapiens, MCF7, 72 h, maximum tested concentration 50 µM, read-out: IC50 ± SEM, MCF7. The data set is classed as cell-based, human. As for the experimental part:
MCF7 (breast) or N87 (stomach) cancer cells were grown in Roswell Park Memorial Institute-1640 (RPMI-1640) medium (Thermo Fisher Scientific, Inc; Waltham, MA, USA), supplemented with 10% heat inactivated fetal bovine serum (FBS), 50 units/mL of penicillin and […] of streptomycin and maintained at 37°C in a humidified atmosphere containing 5% CO2. The cells were maintained as “monolayer culture” by serial subculturing.
Cytotoxicity was determined using Sulforhodamine B (SRB) method as previously described by Skehan et al. ([66]). Exponentially growing MCF7 and N87 cells were collected using 0.25% Trypsin-EDTA and were then seeded in 96-well plates at a density of 1000-2000 cells/well in 10% FBS and penicillin/streptomycin supplemented RPMI-1640 medium. After 24 h, cells were treated with different concentrations of test compounds and incubated for 72 h at 37°C in a humidified atmosphere containing 5% CO2. Next, the cells were fixed by adding trichloroacetic acid (TCA, 10% final conc. in wells) directly to the wells and incubated for 1 h at 4°C, then cells were washed with distilled water 5 times to remove excess TCA, media, serum proteins, and metabolites, followed by air drying. After that, the fixed cells were stained with 0.4% SRB dissolved in 1% acetic acid for 10 min at room temperature, and excess stain was removed by quickly rinsing with 1% acetic acid. The residual acetic acid was removed completely by air drying the plates for 24 h, and the dye was solubilized with Tris buffer (pH= 7.4, 10 mM) for 5 min on a shaker at 1600 rpm. The optical density (OD) of each well was measured spectrophotometrically at 564 nm with an ELISA microplate reader (ChroMate-4300, FL, USA). The IC50 values (concentration of drug resulting in 50% reduction in cell survival) were calculated according to the equation for Boltzman sigmoidal concentration–response curve using the nonlinear regression fitting models (Graph Pad, Prism Version 5).
In general terms: In SRB staining, fixed cells bind dye roughly in proportion to their protein.

The nature of data set [4]: Maximum kinetic aqueous solubility. The data set is classed as physicochemical. The conditions noted are these: 2% DMSO/PBS, pH 7.4, read-out: Max. aq. Sol. On the procedure: Solubility assays were performed using Millipore MultiScreen® HTS-PFC Filter Plates designed for solubility assays (EMD Millipore, Billerica, MA). Assays were run in triplicate. The 96-well plates consist of two chambers separated by a filter. Liquid handling was performed using JANUS® Verispan and MTD workstations (Perkin Elmer, Waltham, MA). 4 µL of 4e or 4n solution (10 mM in DMSO) was added to 196 µL of phosphate buffer (45 mM potassium phosphate, 45 mM sodium acetate, 45 mM ethanolamine, pH = 7.4) in the top chamber to give a final DMSO concentration of 2% and a theoretical drug concentration of 200 µM. Plates were gently shaken for 90 min and then subjected to vacuum. Insoluble drug is captured on the filter. 160 µL of the filtrate is transferred to 96-well Griener UV Star® analysis plates (Sigma–Aldrich, St. Louis, MO) containing 40 µL of acetonitrile. The test compound concentration in the filtrate is measured by UV absorbance on a Spectromax® Plus microplate reader (Molecular Devices, Sunnyvale, CA) using Softmax Pro software v.5.4.5. Absorbances at 5 wavelengths (280, 300, 320, 340, and 360 nm) were summed to generate the UV signal. Standard curves were generated by adding 4 µL of five concentrations of test compound in DMSO to 40 µL of acetonitrile in UV Star plates followed by 156 µL of the appropriate solubility medium. Analysis and statistics were performed using GraphPad® Prism v.5.04. Data were reported as the maximum concentration observed in the filtrate.

The mark [5] stands for this setting: phosphate buffer with 2% DMSO, aqueous buffer, kinetic from dmso stock.

T1 sequence (P11712 whole entry): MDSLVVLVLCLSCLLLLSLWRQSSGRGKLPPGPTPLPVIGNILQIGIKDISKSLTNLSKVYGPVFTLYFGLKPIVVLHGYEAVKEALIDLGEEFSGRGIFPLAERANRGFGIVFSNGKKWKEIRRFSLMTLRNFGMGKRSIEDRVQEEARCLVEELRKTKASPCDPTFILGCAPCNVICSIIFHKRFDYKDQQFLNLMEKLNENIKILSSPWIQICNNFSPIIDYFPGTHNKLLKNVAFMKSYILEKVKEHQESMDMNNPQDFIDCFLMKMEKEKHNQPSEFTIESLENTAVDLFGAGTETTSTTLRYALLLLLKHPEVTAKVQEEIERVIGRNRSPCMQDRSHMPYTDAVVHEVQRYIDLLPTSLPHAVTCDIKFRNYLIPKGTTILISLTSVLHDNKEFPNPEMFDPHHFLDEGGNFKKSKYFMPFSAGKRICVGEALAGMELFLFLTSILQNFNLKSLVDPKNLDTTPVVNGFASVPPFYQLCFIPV
T2 sequence (P10635 whole entry): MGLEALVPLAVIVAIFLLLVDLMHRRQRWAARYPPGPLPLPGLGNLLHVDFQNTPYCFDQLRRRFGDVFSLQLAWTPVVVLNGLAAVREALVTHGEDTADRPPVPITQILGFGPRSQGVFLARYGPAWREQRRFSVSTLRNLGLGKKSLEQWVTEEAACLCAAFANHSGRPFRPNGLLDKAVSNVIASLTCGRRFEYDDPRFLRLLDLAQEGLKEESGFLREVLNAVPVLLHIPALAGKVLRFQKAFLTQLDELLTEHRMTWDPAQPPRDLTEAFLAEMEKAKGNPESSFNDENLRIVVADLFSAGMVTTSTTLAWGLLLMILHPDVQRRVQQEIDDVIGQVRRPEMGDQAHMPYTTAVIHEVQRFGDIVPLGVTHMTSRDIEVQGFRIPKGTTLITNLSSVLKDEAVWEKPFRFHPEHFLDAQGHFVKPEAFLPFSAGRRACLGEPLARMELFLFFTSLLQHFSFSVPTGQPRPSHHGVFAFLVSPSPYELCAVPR

By IC50 is commonly meant the concentration needed to halve the response being measured. In the case of `O=C(Cc1ccc(NC(=O)c2cccc(Cl)c2)cc1)NCc1ccccc1` [Compound 4e, N-(4-(2-(benzylamino)-2-oxoethyl)phenyl)-3-chlorobenzamide], the half-life in data set [1] was over 60 min. The “Mic. Ctrl. Human % 60 min” value in data set [1] is listed as 102%. Besides, the half-inhibitory concentration (IC50) at CYP2C9 was over 10 µM; at CYP2D6, over 10 µM; in data set [2], over 20 µM; in data set [3], 7.41 ± 2.8 µM. On CYP2C9, this compound displayed a no inhibition of CYP2C9 at concentrations up to of over 10 µM. At CYP2D6, this compound registered a no inhibition of CYP2D6 at concentrations up to of over 10 µM. The solubility kinetic at 90 min in data set [4] is under 2.0 µM; in data set [4] (setting [5]) it was under 2 µM.

`O=C(Cc1ccc(NC(=O)c2cccc(Cl)n2)cc1)NCc1ccccc1` [Compound 4n, N-(4-(2-(benzylamino)-2-oxoethyl)phenyl)-6-chloropicolinamide]: in data set [1], the half-life was 40.1 min and the “Mic. Ctrl. Human % 60 min” value stood at 98%. At CYP2C9, this compound gave a 50% inhibitory concentration (IC50) of over 10 µM and a no inhibition of CYP2C9 at concentrations up to of over 10 µM. On CYP2D6, this compound showed an IC50 of over 10 µM and a no inhibition of CYP2D6 at concentrations up to of over 10 µM. Moreover, in data set [2], the 50% inhibitory concentration (IC50) is 0.27 ± 0.03 µM. In addition, the IC50 in data set [3] was 0.25 µM. Further, the solubility kinetic at 90 min in data set [4] (setting [5]) is 2.6 µM (≈ 0.988 µg/mL).
